# In patent US20180243325A1, “METHOD FOR INHIBITING ABSORPTION OF AND/OR PROMOTING EXCRETION OF LIPIDS USING D-PSICOSE” (CJ CHEILJEDANG CORPORATION, priority 2015, published 2018):
# What was measured:
# Type in all cases: in vivo, C57BL/6J mice
# [1] = system: ACC1 (Acetyl-CoA carboxylase 1, 107476); assay: Hepatic mRNA expression, real-time quantitative PCR: ACC1; settings: FIG. 6, liver, HFD+5% w/w in diet, 16 weeks
# Protocol: (§1) First, 4-week-old male C57BL/6J mice (60 total) were purchased from Jackson Laboratory. The animals were acclimated to the vivarium in a thermo-hygrostat (20-23° C., 45-65%) under a 12 h light/dark cycle and fed a pelletized commercial non-purified diet for 1 week after arrival. The mice were then randomly divided into 6 groups (n=10) and fed the respective experimental diets for 16 weeks: normal diet group (ND, American Institute of Nutrition (AIN)-76 semi-synthetic diet), high-fat diet group (HFD, 20% fat+1% cholesterol based on AIN-76 diet), PSI group (HFD+5% D-psicose, w/w, Sigma Chemical Company), ERY group (HFD+5% erythritol, w/w, Sigma Chemical Company), GLU group (HFD+5% D-glucose, w/w, Sigma Chemical Company), and FRU group (HFD+5% D-fructose, w/w, Sigma Chemical Company). All high-fat diet-fed groups were allowed to ingest the same calories by pair feeding based on the PSI group. The mice had ad libitum access to distilled water during the experimental period. Their feed intakes and body weights were measured daily and biweekly, respectively. The organ weights and the adipose tissue weights of the mice were measured after sacrificing the animals.
# Samples were prepared and analyzed as previously described. Specifically, total RNA was synthesized into cDNA using a QuantiTect Reverse Transcription kit (QIAGEN Gmb1h, Hilden, Germany). RNA expression was quantified with real-time quantitative PCR using a QuantiTect SYBR Green PCR kit (QIAGEN Gmb1h, Hilden, Germany). Primers were designed to detect FAS (fatty acid synthase, 14101), ACC1 (Acetyl-CoA carboxylase 1, 107476), CPT1α (Carnitine palmitoyltransferase 1α, 12894), and CPT2 (Carnitine palmitoyltransferase 2, 12896). GAPDH was used as an internal transcription marker. The reaction was performed a total of 40 cycles (each consisting of 15 sec at 94° C., 30 sec at 58° C., 30 sec at 72° C., and 15 sec at 65° C.). Fluorescence signals were monitored every cycle and the resulting threshold cycles (Ct) were analyzed. mRNA expression in each experimental group was quantified using a CFX96 Real time system (Bio-rad, USA).
# [2] = system: high-fat diet-induced obese mice; assay: Plasma leptin, resistin, adiponectin levels and L:A ratio; settings: FIG. 3, HFD+5% w/w in diet, 16 weeks
# Protocol: as §1, with “animals. Plasma leptin, resistin, and adiponectin levels were measured using Bio-Rad multiplex kits (Hercules, Calif., USA). All samples were assayed in duplicate and analyzed using a Luminex 200 labmap system (Luminex, Austin, Tex., USA). Data analysis was performed using Bio-Plex Manager software version 4.1.1 (Bio-Rad, Hercules, Calif., USA).” for “animals.”
# [3] = system: high-fat diet-induced obese mice; assay: Adipose tissue morphologies (epididymal WAT, H&E); settings: FIG. 5B, 200×, HFD+5% w/w in diet, 16 weeks
# Protocol: as §1
# Epididymal WATs were removed from the mice in the normal diet group (ND) and high-fat diet groups (HFD, ERY, GLU, FRU, and PSI) and fixed in a buffer solution of 10% formalin. The fixed epididymal WATs were embedded in paraffin. […] sections were prepared from the epididymal WATs and their cross-sections were dyed with hematoxylin and eosin. Stained areas were observed using an optical microscope at a magnification of 200× (Nikon, Tokyo, Japan).
# [4] = system: ABCG8 (ATP-binding cassette sub-family G member8, 67470); assay: Small intestine mRNA expression, real-time quantitative PCR: ABCG8; settings: high-fat diet-fed obese mice
# Protocol: (§2) First, 4-week-old male C57BL/6J mice (60 total) were purchased from Jackson Laboratory. The animals were acclimated to the vivarium in a thermo-hygrostat (20-23° C., 45-65%) under a 12 h light/dark cycle and fed a pelletized commercial non-purified diet for 1 week after arrival. […] Their feed intakes and body weights were measured daily and biweekly, respectively. The organ weights and the adipose tissue weights of the mice were measured after sacrificing the animals.
# (§3) Samples were prepared and analyzed as previously described. Specifically, total RNA was synthesized into cDNA using a QuantiTect Reverse Transcription kit (QIAGEN Gmb1h, Hilden, Germany). RNA expression was quantified with real-time quantitative PCR using a QuantiTect SYBR Green PCR kit (QIAGEN Gmb1h, Hilden, Germany). […] Fluorescence signals were monitored every cycle and the resulting threshold cycles (Ct) were analyzed. mRNA expression in each experimental group was quantified using a CFX96 Real time system (Bio-rad, USA).
# [5] = system: ABCG5 (ATP-binding cassette sub-family G member5, 27409); assay: Small intestine mRNA expression, real-time quantitative PCR: ABCG5; settings: high-fat diet-fed obese mice
# Protocol: as §2, §3
SMILES,hepatic mRNA expression level of ACC1 [1],leptin:adiponectin ratio (L:A ratio) [2],plasma leptin level [2],plasma resistin level [2],size of adipocytes in the epididymal WATs [3],mRNA expression of ABCG8 (gene involved in lipid excretion) [4],mRNA expression of ABCGS (gene involved in lipid excretion) [5]
"O=C[C@H](O)[C@@H](O)[C@H](O)[C@H](O)CO [GLU, D-glucose]",significantly lower than those in the ND group,increased significantly compared to those in the ND group,increased significantly compared to those in the ND group,increased significantly compared to those in the ND group,increase in the size of adipocytes,,
"O=C(CO)[C@@H](O)[C@H](O)[C@H](O)CO [FRU, D-fructose]",significantly lower than those in the ND group,increased significantly compared to those in the ND group,increased significantly compared to those in the ND group,increased significantly compared to those in the ND group,increase in the size of adipocytes,,
"OC[C@@H](O)[C@@H](O)CO [ERY, erythritol]",significantly lower than those in the ND group,increased significantly compared to those in the ND group,increased significantly compared to those in the ND group,increased significantly compared to those in the ND group,increase in the size of adipocytes,,
"O=C(CO)[C@H](O)[C@H](O)[C@H](O)CO [PSI, D-psicose]",much significantly lower than those in the ND group,reduced considerably to levels similar to those in the ND group,reduced considerably to levels similar to those in the ND group,reduced considerably to levels similar to those in the ND group,relatively small compared to that in the other high-fat diet groups,reduces mRNA expression,reduces mRNA expression
